Assay results published in paper PMC5007552, “The hVps34‐SGK3 pathway alleviates sustained PI3K/Akt inhibition by stimulating mTORC1 and tumour growth” (The EMBO Journal, 2016).
Values joined by “and” are separate entries in the source; they are usually repeats but may differ in a detail not shown here. Equal entries are not always repeated.

Test system: ZR-75-1 cells
Experiment: NanoString human kinome mRNA quantification
Format: cell-based
From the text: Human mRNAs were hybridised to NanoString human kinome and control code sets, then subjected to quantification using NanoString software. […] To permit data compaction, and simple kinome‐wide comparisons, the fold changes are log2 transformed. […] Cell pellets were resuspended at a concentration of ~6,500 cells/μl in RLT buffer (Qiagen). […] For total copy numbers, triplicate normalised count values were averaged, and to calculate fold induction, means were divided by triplicate mean values from matched DMSO controls. P‐values were calculated using unpaired t‐test (GraphPad Prism software) by employing treated and control count data for each kinase mRNA.

NC1(c2ccc(-c3nc4ccn5c(=O)[nH]nc5c4cc3-c3ccccc3)cc2)CCC1 [MK-2206]
MAST2 Normalised counts (single replicates) (MAST2 mRNA, replicates 1-3): 738.65 and 699.23 and 725.5 | MAST3 Normalised counts (single replicates) (MAST3 mRNA, replicates 1-3): 218.81 | MAST4 Normalised counts Average (MAST4 mRNA, average of 3): 166.143 | MAST4 Normalised counts (single replicates) (MAST4 mRNA, replicates 1-3): 166 and 165.82 and 166.61 | MASTL Normalised counts Average (MASTL mRNA, average of 3): 679.5 | MASTL Normalised counts (single replicates) (MASTL mRNA, replicates 1-3): 701.38 and 631.47 and 705.65 | MATK Normalised counts (single replicates) (MATK mRNA, replicates 1-3): 210.28 | MERTK Normalised counts Average (MERTK mRNA, average of 3): 1 | MERTK Normalised counts (single replicates) (MERTK mRNA, replicates 1-3): 1 | MET Normalised counts Average (MET mRNA, average of 3): 45.06 | MET Normalised counts (single replicates) (MET mRNA, replicates 1-3): 44.2 and 35.51 and 55.47 | MINK1 Normalised counts Average (MINK1 mRNA, average of 3): 1315.77 | MINK1 Normalised counts (single replicates) (MINK1 mRNA, replicates 1-3): 1338.56 and 1283.89 and 1324.87 | Average normalised counts (MKNK1 mRNA): 747.723 | Average normalised counts (MKNK2 mRNA): 1542.12 | Average normalised counts (MLKL mRNA): 206.987 | Average normalised counts (MOK mRNA): 276.793 | Average normalised counts (MOS mRNA): 1.463 | Average normalised counts (MST1R mRNA): 587.597 | Average normalised counts (MST4 mRNA): 1197.2 | Average normalised counts (MTOR mRNA): 1169.76 | Average normalised counts (MUSK mRNA): 1 | Average normalised counts (MYLK2 mRNA): 3.573 | Average normalised counts (MYLK3 mRNA): 4.65 | Average normalised counts (MYLK4 mRNA): 3.183 | Average normalised counts (MYLK mRNA): 35.0933 | Average normalised counts (MYO3B mRNA): 1.693 | Average normalised counts (NEK1 mRNA): 126.33 | Average normalised counts (NEK2 mRNA): 1658.91 | Average normalised counts (NEK3 mRNA): 279.833 | Average normalised counts (NEK5 mRNA): 63.3867 | Average normalised counts (NEK6 mRNA): 316.677 | Average normalised counts (NEK7 mRNA): 1505.67 | Average normalised counts (NEK8 mRNA): 178.517 | Average normalised counts (NEK9 mRNA): 368.757 | Average normalised counts (NEK10 mRNA): 2.217 | Average normalised counts (NIM1 mRNA): 1.163 | Average normalised counts (NLK mRNA): 173.16 | Average normalised counts (NPR1 mRNA): 1 | Average normalised counts (NPR2 mRNA): 1 | Average normalised counts (NRBP1 mRNA): 1653.03 | Average normalised counts (NRBP2 mRNA): 1124.63 | Average normalised counts (NRK mRNA): 29.1233 | Average normalised counts (NTRK1 mRNA): 2.95 | Average normalised counts (NTRK2 mRNA): 77.2267 | Average normalised counts (NTRK3 mRNA): 11.2267 | Average normalised counts (NUAK1 mRNA): 101.57 | Average normalised counts (NUAK2 mRNA): 96.2433 | Average normalised counts (OBSCN mRNA): 96.8 | Average normalised counts (OXSR1 mRNA): 220.06 | Average normalised counts (PAK1 mRNA): 710.853 | Average normalised counts (PAK2 mRNA): 2547.5 | Average normalised counts (PAK3 mRNA): 3.48 | Average normalised counts (PAK4 mRNA): 1206.53 | Average normalised counts (PAK6 mRNA): 64.56 | Average normalised counts (PAK7 mRNA): 2.957 | Average normalised counts (PAN3 mRNA): 788.86 | ROCK2 normalised counts, average (ROCK2 mRNA, average of 3 replicates): 1654.49 | ROCK2 normalised counts (ROCK2 mRNA, single replicates): 1580.35 and 1693.07 and 1690.04 | ROR1 normalised counts, average (ROR1 mRNA, average of 3 replicates): 3.17 | ROR1 normalised counts (ROR1 mRNA, single replicates): 1.48 and 3.37 and 4.66 | ROR2 normalised counts, average (ROR2 mRNA, average of 3 replicates): 177.843 | ROR2 normalised counts (ROR2 mRNA, single replicates): 183.27 and 188.41 and 161.85 | ROS1 normalised counts, average (ROS1 mRNA, average of 3 replicates): 1 | ROS1 normalised counts (ROS1 mRNA, single replicates): 1 | RPS6KA1 normalised counts, average (RPS6KA1 mRNA, average of 3 replicates): 743.577 | RPS6KA1 normalised counts (RPS6KA1 mRNA, single replicates): 752.28 and 733.11 and 745.34 | RPS6KA2 normalised counts, average (RPS6KA2 mRNA, average of 3 replicates): 42.18 | RPS6KA2 normalised counts (RPS6KA2 mRNA, single replicates): 39.65 and 43.33 and 43.56 | RPS6KA3 normalised counts, average (RPS6KA3 mRNA, average of 3 replicates): 81.17 | RPS6KA3 normalised counts (RPS6KA3 mRNA, single replicates): 77.83 and 82.42 and 83.26 | RPS6KA4 normalised counts, average (RPS6KA4 mRNA, average of 3 replicates): 830.71 | RPS6KA4 normalised counts (RPS6KA4 mRNA, single replicates): 858.63 and 809.56 and 823.94 | RPS6KA5 normalised counts, average (RPS6KA5 mRNA, average of 3 replicates): 131.06 | RPS6KA5 normalised counts (RPS6KA5 mRNA, single replicates): 126.01 and 136.28 and 130.89 | RPS6KA6 normalised counts, average (RPS6KA6 mRNA, average of 3 replicates): 136.14 | RPS6KA6 normalised counts (RPS6KA6 mRNA, single replicates): 127.82 and 135.42 and 145.18 | RPS6KB1 normalised counts, average (RPS6KB1 mRNA, average of 3 replicates): 1559.99 | RPS6KB1 normalised counts (RPS6KB1 mRNA, single replicates): 1574.89 and 1571.44 and 1533.65 | RPS6KB2 normalised counts, average (RPS6KB2 mRNA, average of 3 replicates): 3538.09 | RPS6KB2 normalised counts (RPS6KB2 mRNA, single replicates): 3546.44 and 3576.5 and 3491.33 | RPS6KC1 normalised counts, average (RPS6KC1 mRNA, average of 3 replicates): 1368.65 | RPS6KC1 normalised counts (RPS6KC1 mRNA, single replicates): 1361.29 and 1349.92 and 1394.73 | RPS6KL1 normalised counts, average (RPS6KL1 mRNA, average of 3 replicates): 85.8967 | RPS6KL1 normalised counts (RPS6KL1 mRNA, single replicates): 86.01 and 87.63 and 84.05 | RYK normalised counts, average (RYK mRNA, average of 3 replicates): 1136.11
